Measured values: patent US5863950A, “HIV protease inhibitors” (Agouron Pharmaceuticals, Inc., priority 1994, dated 1999)
pIC50, pKi: −log10 of the molar value. Converted amounts (≈) assume the structure as drawn. Read-outs that look alike come from different tables or passages of the source.

How the values were obtained:
HIV = test: antiviral assay (enantiomer comparison, cell line not given); format: cell-based; conditions: enantiomers compared with each other
HIV-1 (MT-2 cells) = test: Anti-HIV MTT assay, inhibition of HIV-induced cell killing, MT-2 cells; format: cell-based, HIV-1 isolates IIIB and/or RF; conditions: Human immunodeficiency virus 1, MT2, 144 h, read-out: Viral MT-2
From the text: (§1) SRI has an established program for the primary antiviral analysis of compounds in microtiter assays which measure the ability of a selected compound to inhibit HIV-induced cell killing. This assay involves the conversion of the tetrazolium dye MTT to a colored formazan product by mitochondrial enzymes in metabolically active cells. This assay system is presently used at SRI to screen over 30,000 compounds per year. Briefly, the assay involves the infection of CEM or MT2 cells in round bottom 96-well plates. The compound of interest is added just prior to infection. Following 6 days of incubation at 37° C. the plates are stained with MTT. The results of the assay are quantitated spectrophotometrically on a Molecular Devices Vmax plate reader. The data is analyzed by linear regression utilizing an in-house software program to calculate antiviral activity. (IC25, IC50, IC95) and toxicity (TC25, TC50, TC95) as well as other values.
(§2) Primary antiviral assays are routinely performed in CEM or MT-2 cells.
(§3) Drugs will be solubilized in the appropriate vehicle such as distilled water or DMSO if necessary. Latex gloves, lab coats and masks are used during all phases of the handling process to prevent exposure to potentially harmful agents. The drug is prepared at the appropriate concentration and stored at -20° C. until used by the screening laboratory. The first dilution of each compound is made in a dilution tube with medium to yield a concentration two-fold that of the highest test concentration. Sterile titer tubes are then used to make serial one half-log dilutions of each compound. Following drug dilution, the diluted compound is added to the appropriate well of a 96-well microtiter plate. Up to 12 dilutions can be assayed conveniently in triplicate on a single plate with all appropriate controls including cell control, virus control, toxicity control, drug color control, medium control and plastic (background) control. When testing includes only six dilutions, two drugs can be assayed on a single microtiter plate. The drugs are added to the plate in a final volume of 100 microliters.
(§4) During the time the drug dilutions are prepared, cells are washed and counted. Viability is monitored by trypan blue dye exclusion and assays are not performed if the viability falls below 90%. Cells are maintained in an exponential growth phase and are split 1:2 on the day prior to assay to assure exponential growth rate.
(§5) For the primary screen, the cell lines utilized are CEM and MT-2. Unless otherwise indicated, the medium used is RPMI 1640 with 10% heat-inactivated fetal calf serum (FBS), glutamine and antibiotics.
(§6) Cells are propagated at 37° C. in an atmosphere of 5% CO2 in air. The virus employed for this work is HIV-1 isolates IIIB and/or RF, which are prepared by an acute infection process.
(§7) Briefly, virus-infected cells are pelleted on a daily basis beginning at three days post-infection until the virus has killed all of the cells in the culture. Reverse transcriptase activity and p24 ELISA are used to identify pools with the greatest amount of virus.
(§8) These 24-hour harvests are pooled, filtered and frozen at -90° C. Prior to use in the assay, the infectious pool of virus is titered on all available cell lines in order to determine the amount of virus required in the antiviral assay.
(§9) In general, pools produced by the acute infection method require the addition of one microliter of infectious virus per well resulting in the screening of drugs at a multiplicity of infection of 0.01. In this manner enough virus is prepared and frozen to complete over one thousand microtiter plates, allowing the testing of up to two thousand compounds from a single stock of infectious virus. The use of a single stock of virus for a long period of testing has very favorable effects on the repeatability of the assay systems.
(§10) Virus infection of the CEM and MT-2 cells for the antiviral assay is carried out in a bulk infection process. […]

HIV-1 (CEM cells) = test: Anti-HIV MTT assay, inhibition of HIV-induced cell killing, CEM cells; format: cell-based, HIV-1 isolates IIIB and/or RF; conditions: Human immunodeficiency virus 1, CCRF-CEM, 144 h, CEM cell line (first position), 6 days, 37° C., read-out: Viral CEM
From the text: as §1, §2, §3, §4, §5, §6, §7, §8, §9, §10

HIV-1 protease = molecular target: T1, HIV-1 protease (Human immunodeficiency virus type 1 group M subtype B, UniProt P04585); test: biochemical; format: biochemical
T1 construct: purified HIV-1 protease
Experimental: 1. Proteolytic activity of purified HIV-1 protease was routinely measured using the chromogenic assay developed by Richards et al. (J. Biol. Chem. 265: 7733 (1990)). Synthetic peptide His-Lys-Ala-Arg-Val-Leu-Phe (pNO2)-Glu-Ala-Nle-Ser-NH2 (American Peptide Company) was used as the substrate.
2. The assay was carried out in 0.5M NaCl, 50 mM MES pH 5.6, 2% DMSO (dimethylsulfoxide) at 37° C. Cleavage of the scissile bond between leucine and paranitro-phenylalanine (Phe(pNO2)) was assayed by spectrophotometric monitoring of the decrease in absorbance at 305 nm. Initial velocity was determined as the rate of decline of absorbance during the first 100 seconds of reaction.
3. […] Between 15-25 concentrations of inhibitor were added and velocity of reaction was measured at each of the concentrations, as described above.
4. Inhibition constants were calculated using the method of Jackson et al. (Adv. in Enzyme Regulation 22: 187 (1984)).

[1] = MT-2 cells (second position), 6 days, 37° C., MTT
[2] = 0.5M NaCl, 50 mM MES pH 5.6, 2% DMSO, 37° C., 200 μM substrate

| SMILES | pIC50 (HIV-1 protease; [2]) | pKi (HIV-1 protease; [2]) | pKi (HIV-1 protease) | activity in the antiviral assay (HIV) | IC50 (HIV-1 (MT-2 cells); [1]) | IC50 (HIV-1 (CEM cells)) | IC50 (HIV-1 (MT-2 cells)) |
| --- | --- | --- | --- | --- | --- | --- | --- |
| CCC1(N(CCO)C(=O)c2ccccc2CC[C@H](O)Cc2ccc(C)cc2C(=O)N(CCO)C(C)(C)c2ccccc2)CCCC1 [Example 116b] | – | – | – | less active | – | – | – |
| CC(C)(C)N(CCO)C(=O)c1ccccc1CCC(O)Cc1ccccc1C(=O)N(CCO)C(C)(C)c1ccccc1 (stereo not drawn) [Example 91] | 6.56 | 6.76 | – | – | 5.28 µg/mL (≈ 9.19 µM) | 1.95 µg/mL (≈ 3.39 µM) | – |
| CCCC(CC)(CC)N(CCO)C(=O)c1cc(C)ccc1CC(O)CCc1ccccc1C(=O)N(CCO)C1(CC)CCCC1 (stereo not drawn) [Example 109] | 7.23 | 7.87 | – | – | – | 0.79 µg/mL (≈ 1.27 µM) | 0.59 µg/mL (≈ 0.947 µM) |
| CC(C)(C)N(CCO)C(=O)c1ccccc1CCC(O)Cc1ccccc1C(=O)N(Cc1ncc[nH]1)C(C)(C)c1ccccc1 (stereo not drawn) [Example 72] | 6.49 | 7.00 | – | – | 17.9 µg/mL (≈ 29.3 µM) | 5.54 µg/mL (≈ 9.07 µM) | – |
| CC(C)(C)N(CCO)C(=O)c1ccccc1CCC(O)Cc1ccccc1C(=O)N(CCO)C(C)(C)c1ccc2ccccc2c1 (stereo not drawn) [Example 66] | 6.60 | 6.84 | – | – | 12.7 µg/mL (≈ 20.3 µM) | 4.53 µg/mL (≈ 7.25 µM) | – |
| CCC1(N(CCO)C(=O)c2ccccc2CC[C@@H](O)Cc2ccc(C)cc2C(=O)N(CCO)C(C)(C)c2ccccc2)CCCC1 [Example 116a] | – | – | – | more active | – | – | – |
| CC(C)(C)N(CCO)C(=O)c1ccccc1CCC(O)Cc1ccccc1C(=O)N(CCOc1ccncc1)C(C)(C)c1ccccc1 (stereo not drawn) [Example 83] | 5.60 | 6.13 | – | – | > 100 µg/mL | > 100 µg/mL | – |
| CC(C)(C)N(CCO)C(=O)c1ccccc1CCC(O)Cc1ccccc1C(=O)N(CCO)C(C)(C)c1ccncc1 (stereo not drawn) [Example 77] | 5.91 | 6.00 | – | – | 16.4 µg/mL (≈ 28.5 µM) | 7.57 µg/mL (≈ 13.1 µM) | – |
| CC(C)(C)N(CCO)C(=O)c1ccccc1CCC(O)Cc1ccccc1C(=O)N(CCO)C12CCCCC1CCC2 (stereo not drawn) [Example 81] | 6.64 | 7.19 | – | – | 5.58 µg/mL (≈ 9.64 µM) | 4.39 µg/mL (≈ 7.58 µM) | – |
| CC(C)(C)NC(=O)c1cc(Sc2ccccc2)ccc1CCC(O)Cc1ccccc1C(=O)N(CCO)C(C)(C)C (stereo not drawn) [Example 73] | 6.17 | 6.14 | – | – | > 10 µg/mL | > 10 µg/mL | – |

Second part, led by results:

| pIC50 (HIV-1 protease; [2]) | pKi (HIV-1 protease; [2]) | pKi (HIV-1 protease) | SMILES | activity in the antiviral assay (HIV) | IC50 (HIV-1 (MT-2 cells); [1]) | IC50 (HIV-1 (CEM cells)) | IC50 (HIV-1 (MT-2 cells)) |
| --- | --- | --- | --- | --- | --- | --- | --- |
| 7.04 | 7.49 | – | CCC1(N(CC(CO)CO)C(=O)c2ccccc2CCC(O)Cc2ccc(C)cc2C(=O)N(CC(CO)CO)C(C)(C)c2ccccc2)CCCC1 (stereo not drawn) [Example 107] | – | 1.34 µg/mL (≈ 1.87 µM) | 1.44 µg/mL (≈ 2.01 µM) | – |
| 6.65 | 7.42 | – | CCC1(N(CCO)C(=O)c2ccccc2CCC(O)Cc2ccccc2C(=O)N(CCO)C23CCCCC2CCCC3)CCCC1 (stereo not drawn) [Example 97] | – | > 10 µg/mL | 1.58 µg/mL (≈ 2.5 µM) | – |
| 6.97 | – | 8.00 | CCC1(N(CCO)C(=O)c2ccccc2CCC(O)Cc2ccc(C)cc2C(=O)N(CC(CO)CO)C(C)(C)c2ccccc2)CCCC1 (stereo not drawn) [Example 103] | – | 1.15 µg/mL (≈ 1.71 µM) | 0.64 µg/mL (≈ 0.951 µM) | – |
| 6.98 | 8.64 | – | CCC1(N(CCO)C(=O)c2ccccc2CCC(O)Cc2ccccc2C(=O)N(CCO)C2(c3ccccc3)CCCC2)CCCC1 (stereo not drawn) [Example 93] | – | 1.67 µg/mL (≈ 2.61 µM) | 1.35 µg/mL (≈ 2.11 µM) | – |
| 6.71 | 7.82 | – | CCSc1ccc(CC(O)CCc2ccccc2C(=O)N(CCO)C2(CC)CCCC2)c(C(=O)N(CCO)C(C)(C)c2ccccc2)c1 (stereo not drawn) [Example 99] | – | 5.75 µg/mL (≈ 8.52 µM) | 1.62 µg/mL (≈ 2.4 µM) | – |
| 6.99 | 8.70 | – | CCC1(N(CCO)C(=O)c2ccccc2CCC(O)Cc2ccc(C)cc2C(=O)N(CCO)C(C)(C)c2ccc(OCc3cccnc3)cc2)CCCC1 (stereo not drawn) [Example 98] | – | 1.94 µg/mL (≈ 2.64 µM) | 0.48 µg/mL (≈ 0.652 µM) | – |
| 6.99 | 8.40 | – | CCC1(N(CCO)C(=O)c2ccccc2CCC(O)Cc2ccc(C)cc2C(=O)N(CCO)C(CC)(CC)c2ccccc2)CCCC1 (stereo not drawn) [Example 101] | – | 1.67 µg/mL (≈ 2.54 µM) | 4.16 µg/mL (≈ 6.33 µM) | – |
| 6.96 | 8.15 | – | CCC1(N(CCO)C(=O)c2ccccc2CCC(O)Cc2ccccc2C(=O)N(CCC(O)CO)C(C)(C)c2ccccc2)CCCC1 (stereo not drawn) [Example 100] | – | 1.94 µg/mL (≈ 2.94 µM) | 0.48 µg/mL (≈ 0.729 µM) | – |
